The text below walks through data of patent US8927538B2, “Carbazole linked pyrrolo[2,1-c][1,4]benzodiazefine hybrids as potential anticancer agents and process for the preparation thereof” (Council of Scientific & Industrial Research, priority 2010, dated 2015).

One data set relates to SK-MEL-5. The data set is described as follows: NCI SRB cytotoxicity, SK-MEL-5. The settings on record: Melanoma SK-MEL-5, 48 hrs exposure. It counts as cell-based, human. The text has this:
(§1) The C8-linked carbazole-PBD hybrids have been tested against sixty human tumour cell lines derived from nine cancer types (leukemia, non-small cell lung cancer, colon cancer, CNS cancer, melanoma, ovarian cancer, renal cancer, prostate cancer and breast cancer) as per NCI protocol, For each compound, dose response curves for individual cell lines have been measured at a minimum of five concentrations at 10 fold dilutions. A protocol of 48 hrs continuous drug exposure has been used, and a sulforhodamine B (SRB) protein assay was used to estimate cell viability or growth. The concentration for 50% cell growth inhibition (GI50), total cell growth inhibition (TGI, 0% growth) and 50% cell death (LC50, […]) compared with the control has been calculated (Table-3).
(§2) Compounds 6c and 14a have been evaluated for in vitro cytotoxicity in sixty cell lines from nine human cancer types of lung (Hop-62, NCI-H226, NCI-H522), leukemia (K-562, SR), colon (HCT-116, HCT-15, HCC-2998), CNS(SF-539), melanoma (SK-MEL-5, UACC-62, M14), ovarian (IGROV1), renal (A498), prostate (PC3) breast (BT-549, MDA-MB-435, HS578T) origin. The results are expressed as percent of cell growth determined relative to that of untreated control cells (Table 1).

The subject of a further data set is DU-145. The data set is described as follows: NCI SRB cytotoxicity, DU-145. The settings on record: Prostate DU-145, 48 hrs exposure. It counts as cell-based, human.
Text: as §1, §2

The test system of a further data set is K-562. The data set is described as follows: NCI SRB cytotoxicity, K-562. It counts as cell-based, human. The settings on record: Leukemia K-562, 48 hrs exposure.
Text: as §1, §2

The test system of the next data set is UACC-257. Kind of data set: NCI SRB cytotoxicity, UACC-257. The format is cell-based, human. The settings on record: Melanoma UACC-257, 48 hrs exposure.
Text: as §1, §2

The subject of a further data set is NCI-H226. Kind of data set: NCI SRB cytotoxicity, NCI-H226. The format is cell-based, human. The settings on record: Non-small cell lung NCI-H226, 48 hrs exposure.
Text: as §1, §2

The next data set relates to U251. The data set is described as follows: NCI SRB cytotoxicity, U251. It counts as cell-based, human. The settings on record: CNS U251, 48 hrs exposure.
Text: as §1, §2

The next data set relates to MCF7. Kind of data set: NCI SRB cytotoxicity, MCF7. The format is cell-based, human. The settings on record: Breast MCF7, 48 hrs exposure.
Text: as §1, §2

A further data set deals with HCC-2998. The data set is described as follows: NCI SRB cytotoxicity, HCC-2998. The settings on record: Colon HCC-2998, 48 hrs exposure. It counts as cell-based, human.
Text: as §1, §2

Another data set has as its system MOLT-4. The data set is described as follows: NCI SRB cytotoxicity, MOLT-4. The format is cell-based, human. The settings on record: Leukemia MOLT-4, 48 hrs exposure.
Text: as §1, §2

The test system of the next data set is SK-MEL-2. The data set is described as follows: NCI SRB cytotoxicity, SK-MEL-2. It counts as cell-based, human. The settings on record: Melanoma SK-MEL-2, 48 hrs exposure.
Text: as §1, §2

Data set [1] has as its system duplex-form calf thymus DNA (CT-DNA). The data set is described as follows: Thermal denaturation studies (DNA binding). The settings on record: [PBD]:[DNA] molar ratio 1:5, CT-DNA 100 μM, ligand 20 μM; for ΔTm after incubation at 37 °C for 0 h: pH 7.00, 0 h; for ΔTm after incubation at 37 °C for 18 h: pH 7.00, 18 h. As to the method: Compounds have been subjected to thermal denaturation studies with duplex-form calf thymus DNA (CT-DNA) using a modification of a reported procedure. Working solutions in aqueous buffer ([…] NaH2PO4/Na2HPO4, 1 mM Na2EDTA, pH 7.00±0.01) containing CT-DNA (100 μM in phosphate) and the PBD (20 μM) have been prepared by addition of concentrated PBD solutions in DMSO to obtain a fixed [PBD]/[DNA] molar ratio of 1:5. The DNA-PBD solutions have been incubated at 37° C. for 0 and 18 hrs prior to analysis. Samples have been monitored at 260 nm using a Beckman DU-800 spectrophotometer fitted with high performance temperature controller, and heated at 1° C. min^−1 in the 40-110° C. range. DNA helix→coil transition temperatures (Tm) have been obtained from the maxima in the d(A260)/dT derivative plots. Drug-induced alterations in DNA melting behavior are given by: […]Tm=Tm(DNA+PBD)-Tm(DNA alone), where the Tm value for the PBD-free CT-DNA is 68.5 […]0.01.
The DNA-binding for these C8-linked carbazole-PBD hybrids has been examined by thermal denaturation studies using calf thymus (CT) DNA. […] Data for 6a, 6b, 6c, 14a, 14b, and 14d and DC-81 are included in Table 5 for comparison.

The next data set deals with PC-3. The data set is described as follows: NCI SRB cytotoxicity, PC-3. The format is cell-based, human. The settings on record: Prostate PC-3, 48 hrs exposure.
Text: as §1, §2

The test system of the next data set is LOX IMVI. Kind of data set: NCI SRB cytotoxicity, LOX IMVI. The format is cell-based, human. The settings on record: Melanoma LOX IMVI, 48 hrs exposure.
Text: as §1, §2

The test system of a further data set is SF-268. Kind of data set: NCI SRB cytotoxicity, SF-268. The format is cell-based, human. The settings on record: CNS SF-268, 48 hrs exposure.
Text: as §1, §2

The subject of a further data set is A549/ATCC. Kind of data set: NCI SRB cytotoxicity, A549/ATCC. It counts as cell-based, human. The settings on record: Non-small cell lung A549/ATCC, 48 hrs exposure.
Text: as §1, §2

The test system of the next data set is OVCAR-5. Kind of data set: NCI SRB cytotoxicity, OVCAR-5. It counts as cell-based, human. The settings on record: Ovarian OVCAR-5, 48 hrs exposure.
Text: as §1, §2

The next data set has as its system M14. The data set is described as follows: NCI SRB cytotoxicity, M14. The format is cell-based, human. The settings on record: Melanoma M14, 48 hrs exposure.
Text: as §1, §2

For data set [2], the system named is sixty human tumour cell lines derived from nine cancer types. The data set is described as follows: NCI in vitro cytotoxicity screen (SRB), sixty cell lines. It counts as cell-based. The settings on record: for GI50: 48 hrs continuous drug exposure, SRB, read-out: GI50 against sixty cell lines in nine cancer cell panels; for in vitro cytotoxicity: sixty cell lines from nine human cancer types.
Text: as §1, §2

In a further data set the test system is SW-620. The data set is described as follows: NCI SRB cytotoxicity, SW-620. It counts as cell-based, human. The settings on record: Colon SW-620, 48 hrs exposure.
Text: as §1, §2

For the next data set, the system named is SR. Kind of data set: NCI SRB cytotoxicity, SR. The settings on record: Leukemia SR, 48 hrs exposure. It counts as cell-based, human.
Text: as §1, §2

The subject of a further data set is HT 29. Kind of data set: NCI SRB cytotoxicity, HT 29. The format is cell-based, human. The settings on record: Colon HT 29, 48 hrs exposure.
Text: as §1, §2

A further data set relates to NCI-H522. The data set is described as follows: NCI SRB cytotoxicity, NCI-H522. The format is cell-based, human. The settings on record: Non-small cell lung NCI-H522, 48 hrs exposure.
Text: as §1, §2

The mark [3] stands for this setting: against nine human tumor cell lines.

Broadly, the GI50 is the concentration giving 50% growth inhibition. In the case of `COc1cc2c(cc1OCCCCCn1c3ccccc3c3ccccc31)N=C[C@@H]1CCCN1C2=O` [Compound 6c, 7-Methoxy-8-[5-(9H-9-carbazoly)pentyloxy]-(11aS)-1,2,3,11a-tetrahydro-5H-Pyrrolo[2,1-c][1,4]benzodiazepin-5-one], the GI50 is 1730 nM with SK-MEL-5; 2230 nM with DU-145; 2600 nM in the data set on K-562; 2290 nM in the data set with UACC-257; 2490 nM with NCI-H226; 1590 nM with U251. Moreover, the GI50 in the data set with MCF7 came out at 2330 nM; in the data set with HCC-2998 it was 1710 nM; in the data set with MOLT-4 it was 2150 nM; in the data set with SK-MEL-2, 1670 nM; in the data set with PC-3 it was 2360 nM; with LOX IMVI it was 2080 nM. In addition, the GI50 came out at 1910 nM in the data set on SF-268; 1570 nM with A549/ATCC; 2420 nM in the data set with OVCAR-5; 2100 nM with M14; 1030 nM in [2]. For the same molecule, the “ΔTm after incubation at 37 °C for 0 h” value in [1] stood at 4.1 °C. The “ΔTm after incubation at 37 °C for 18 h” value in data set [1] came to 4.9 °C. The “log10 GI50 mean graph midpoint value” in data set [2] (setting [3]) is −5.67 mol/lit. In addition, the “log10 LC50 mean graph midpoint value” in [2] (setting [3]) is recorded as −4.67 mol/lit. Also, the “log10 TGI mean graph midpoint value” in data set [2] (setting [3]) is reported as −5.29 mol/lit. Further, the “Log10 GI50 mean graph midpoint (MG_MID)” value in data set [2] (human tumour cell lines) is −5.67. For the same molecule, the “Log10 LC50 mean graph midpoint (MG_MID)” value in [2] (human tumour cell lines) is −4.67. Besides, the “Log10 TGI mean graph midpoint (MG_MID)” value in [2] (human tumour cell lines) was −5.29. Besides, the “in vitro cytotoxicity” value in data set [2] is on record as “significant cytotoxicity against some cancer cell lines”.
Turning to `COc1cc2c(cc1OCCCN1CCN(CCCn3c4ccccc4c4ccccc43)CC1)N=C[C@@H]1CCCN1C2=O` [Compound 14a], the GI50 with SK-MEL-5 came to 230 nM; in the data set with UACC-257 it was 150 nM; in the data set on SW-620, 40 nM; with HCC-2998, 130 nM; with SR, 30 nM; in the data set with SK-MEL-2, 190 nM. Further, the GI50 was 50 nM in the data set with HT 29, < 10 nM in the data set on NCI-H522 and < 10 nM in data set [2]. Further, the “ΔTm after incubation at 37 °C for 0 h” value in data set [1] stood at 7.5 °C. Moreover, the “ΔTm after incubation at 37 °C for 18 h” value in data set [1] is 8.2 °C. The “activity of 14a compared with 6c” value in [2] (GI50 comparison) is given as “ten folds higher activity than 6c”. Moreover, the “Log10 TGI mean graph midpoint (MG_MID)” value in data set [2] (human tumour cell lines) is listed as −6.24. Moreover, the “in vitro cytotoxicity” value in [2] is “significant cytotoxicity against some cancer cell lines”.
